Measured values as given in PubChem BioAssay (NCI).
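Assay format: 96-well plates, 48-hour exposure. TGI denotes the concentration required for complete inhibition of growth.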

Columns and labels:
Experiment in all cases: NCI-60 cell line screen, 48 h
[1] = system: KM12 colon
[2] = system: IGROV1 ovarian
[3] = system: CAKI-1 renal
[4] = system: SNB-19 CNS
[5] = system: HOP-92 NSCLC
[6] = system: UO-31 renal
[7] = system: NCI-H226 lung
[8] = system: A498 renal
[9] = system: MOLT-4 leukemia
[10] = system: DU-145 prostate
[11] = system: CCRF-CEM leukemia
[12] = system: MDA-N
[13] = system: HCT-15 colon
[14] = system: MDA-MB-231 breast
[15] = system: NCI-H460 lung
[16] = system: COLO 205 colon
[17] = system: HT29 colon
[18] = system: MALME-3M melanoma
[19] = system: NCI-H522 lung
[20] = system: PC-3 prostate
[21] = system: TK-10 renal
[22] = system: MDA-MB-435
[23] = system: HOP-62 NSCLC
[24] = system: SW-620 colon
[25] = system: BT-549 breast
[26] = system: EKVX NSCLC
[27] = system: SF-295 CNS
[28] = system: UACC-62 melanoma
[29] = system: 786-0 renal
[30] = system: OVCAR-4 ovarian
[31] = system: U251 CNS
[32] = system: RPMI-8226 leukemia
[33] = system: SF-268 CNS
[34] = system: RXF 393 renal
[35] = system: OVCAR-5 ovarian
[36] = system: SR leukemia
[37] = system: LOX IMVI melanoma
[38] = system: MCF7 breast
[39] = system: ACHN renal
[40] = system: SK-MEL-28 melanoma
[41] = system: HCT-116 colon
[42] = system: SK-MEL-5 melanoma
[43] = system: SN12C renal
[44] = system: SK-MEL-2 melanoma
[45] = system: HCC-2998 colon
[46] = system: NCI-H23 lung
[47] = system: HL-60(TB) leukemia
[48] = system: OVCAR-3 ovarian
[49] = system: SK-OV-3 ovarian
[50] = system: UACC-257 melanoma
[51] = system: A549 NSCLC
[52] = system: SF-539 CNS
[53] = system: NCI/ADR-RES ovarian
[54] = system: SNB-75 CNS
[55] = system: M14 melanoma
[56] = system: OVCAR-8 ovarian
[57] = system: T-47D breast
[58] = system: K-562 leukemia
[59] = system: HS 578T breast

## CC1(C)OCC(COC(=O)C=[N+]=[N-])O1 (stereo not drawn)
[1]
  TGI: > 100 µM
[2]
  TGI: > 100 µM
[3]
  TGI: > 100 µM
[4]
  TGI: > 100 µM
[5]
  TGI: > 100 µM
[6]
  TGI: > 100 µM
[7]
  TGI: > 100 µM
[8]
  TGI: > 100 µM
[9]
  TGI: > 100 µM
[10]
  TGI: > 100 µM
[11]
  TGI: > 100 µM
[12]
  TGI: > 100 µM
[13]
  TGI: > 100 µM
[14]
  TGI: > 100 µM
[15]
  TGI: > 100 µM
[16]
  TGI: > 100 µM
[17]
  TGI: > 100 µM
[18]
  TGI: > 100 µM
[19]
  TGI: > 100 µM
[20]
  TGI: > 100 µM
[21]
  TGI: > 100 µM
[22]
  TGI: > 100 µM
[23]
  TGI: > 100 µM
[24]
  TGI: > 100 µM
[25]
  TGI: > 100 µM
[26]
  TGI: > 100 µM
[27]
  TGI: > 100 µM
[28]
  TGI: > 100 µM
[29]
  TGI: > 100 µM
[30]
  TGI: > 100 µM
[31]
  TGI: > 100 µM
[32]
  TGI: > 100 µM
[33]
  TGI: > 100 µM
[34]
  TGI: > 100 µM
[35]
  TGI: > 100 µM
[36]
  TGI: > 100 µM
[37]
  TGI: > 100 µM
[38]
  TGI: > 100 µM
[39]
  TGI: > 100 µM
[40]
  TGI: > 100 µM
[41]
  TGI: > 100 µM
[42]
  TGI: > 100 µM
[43]
  TGI: > 100 µM
[44]
  TGI: > 100 µM
[45]
  TGI: > 100 µM
[46]
  TGI: > 100 µM
[47]
  TGI: > 100 µM
[48]
  TGI: > 100 µM
[49]
  TGI: > 100 µM
[50]
  TGI: > 100 µM

## Oc1ccc(/C=C/c2cc(O)cc(O)c2)cc1
[51]
  TGI: > 100 µM
[1]
  TGI: > 100 µM
[52]
  TGI: > 100 µM
[53]
  TGI: > 100 µM
[3]
  TGI: > 100 µM
[4]
  TGI: > 100 µM
[5]
  TGI: > 100 µM
[6]
  TGI: > 100 µM
[7]
  TGI: > 100 µM
[8]
  TGI: > 100 µM
[9]
  TGI: > 100 µM
[10]
  TGI: 85.3 µM
[12]
  TGI: > 100 µM
[13]
  TGI: > 100 µM
[14]
  TGI: > 100 µM
[15]
  TGI: > 100 µM
[17]
  TGI: > 100 µM
[20]
  TGI: > 100 µM
[21]
  TGI: > 100 µM
[22]
  TGI: > 100 µM
[23]
  TGI: > 100 µM
[24]
  TGI: > 100 µM
[25]
  TGI: > 100 µM
[26]
  TGI: > 100 µM
[27]
  TGI: > 100 µM
[28]
  TGI: > 100 µM
[30]
  TGI: > 100 µM
[31]
  TGI: > 100 µM
[32]
  TGI: > 100 µM
[54]
  TGI: > 100 µM
[33]
  TGI: > 100 µM
[34]
  TGI: > 100 µM
[35]
  TGI: > 100 µM
[36]
  TGI: > 100 µM
[38]
  TGI: > 100 µM
[39]
  TGI: > 100 µM
[40]
  TGI: > 100 µM
[43]
  TGI: > 100 µM
[55]
  TGI: > 100 µM
[56]
  TGI: > 100 µM
[57]
  TGI: > 100 µM
[44]
  TGI: > 100 µM
[45]
  TGI: > 100 µM
[46]
  TGI: > 100 µM
[47]
  TGI: > 100 µM
[48]
  TGI: > 100 µM
[49]
  TGI: > 100 µM
[50]
  TGI: > 100 µM

## CC[C@]1(Cc2ccc(OC)c(OC)c2)CN(S(=O)(=O)c2ccc(C)cc2)C[C@@H]1OC(C)=O
[51]
  TGI: > 100 µM
[1]
  TGI: > 100 µM
[52]
  TGI: > 100 µM
[2]
  TGI: > 100 µM
[53]
  TGI: > 100 µM
[3]
  TGI: > 100 µM
[4]
  TGI: > 100 µM
[5]
  TGI: > 100 µM
[6]
  TGI: > 100 µM
[7]
  TGI: > 100 µM
[8]
  TGI: > 100 µM
[9]
  TGI: > 100 µM
[10]
  TGI: > 100 µM
[11]
  TGI: > 100 µM
[12]
  TGI: > 100 µM
[13]
  TGI: > 100 µM
[14]
  TGI: > 100 µM
[15]
  TGI: > 100 µM
[16]
  TGI: > 100 µM
[17]
  TGI: > 100 µM
[18]
  TGI: > 100 µM
[58]
  TGI: > 100 µM
[20]
  TGI: > 100 µM
[21]
  TGI: > 100 µM
[59]
  TGI: > 100 µM
[22]
  TGI: > 100 µM
[23]
  TGI: > 100 µM
[24]
  TGI: > 100 µM
[26]
  TGI: > 100 µM
[27]
  TGI: > 100 µM
[28]
  TGI: > 100 µM
[29]
  TGI: > 100 µM
[30]
  TGI: > 100 µM
[31]
  TGI: > 100 µM
[32]
  TGI: > 100 µM
[54]
  TGI: > 100 µM
[33]
  TGI: > 100 µM
[34]
  TGI: > 100 µM
[35]
  TGI: > 100 µM
[36]
  TGI: > 100 µM
[37]
  TGI: > 100 µM
[38]
  TGI: > 100 µM
[39]
  TGI: > 100 µM
[40]
  TGI: > 100 µM
[42]
  TGI: > 100 µM
[55]
  TGI: > 100 µM
[56]
  TGI: > 100 µM
[57]
  TGI: > 100 µM
[44]
  TGI: > 100 µM
[45]
  TGI: > 100 µM
[46]
  TGI: > 100 µM
[47]
  TGI: > 100 µM
[48]
  TGI: > 100 µM
[49]
  TGI: > 100 µM
[50]
  TGI: > 100 µM

## COC(=O)C1(C(=O)OC)CC2=C(S(=O)(=O)c3ccccc3)C[C@H](S(=O)(=O)c3ccccc3)[C@H]2C1
[51]
  TGI: > 100 µM
[1]
  TGI: > 100 µM
[2]
  TGI: 49.9 µM
[53]
  TGI: > 100 µM
[3]
  TGI: > 100 µM
[4]
  TGI: > 100 µM
[5]
  TGI: 55.9 µM
[6]
  TGI: > 100 µM
[7]
  TGI: > 100 µM
[8]
  TGI: > 100 µM
[9]
  TGI: > 100 µM
[10]
  TGI: > 100 µM
[11]
  TGI: > 100 µM
[12]
  TGI: > 100 µM
[13]
  TGI: > 100 µM
[14]
  TGI: > 100 µM
[15]
  TGI: > 100 µM
[16]
  TGI: > 100 µM
[17]
  TGI: > 100 µM
[18]
  TGI: > 100 µM
[19]
  TGI: 92.7 µM
[58]
  TGI: 58.5 µM
[20]
  TGI: > 100 µM
[21]
  TGI: > 100 µM
[59]
  TGI: > 100 µM
[22]
  TGI: > 100 µM
[23]
  TGI: > 100 µM
[24]
  TGI: > 100 µM
[25]
  TGI: > 100 µM
[26]
  TGI: > 100 µM
[27]
  TGI: > 100 µM
[28]
  TGI: 71.6 µM
[29]
  TGI: > 100 µM
[30]
  TGI: > 100 µM
[31]
  TGI: > 100 µM
[32]
  TGI: > 100 µM
[54]
  TGI: 93.6 µM
[33]
  TGI: > 100 µM
[34]
  TGI: 66.2 µM
[35]
  TGI: > 100 µM
[37]
  TGI: > 100 µM
[39]
  TGI: > 100 µM
[40]
  TGI: > 100 µM
[41]
  TGI: > 100 µM
[42]
  TGI: > 100 µM
[43]
  TGI: > 100 µM
[55]
  TGI: > 100 µM
[56]
  TGI: > 100 µM
[57]
  TGI: 92.6 µM
[44]
  TGI: > 100 µM
[45]
  TGI: 29.5 µM
[46]
  TGI: > 100 µM
[48]
  TGI: > 100 µM
[49]
  TGI: > 100 µM
[50]
  TGI: > 100 µM
